From patent US20210198277A1, “AMINE-SUBSTITUTED ARYL OR HETEROARYL COMPOUNDS” (Epizyme, Inc., priority 2016, published 2021)

Legend:
EHMT1 = target: T1, EHMT1 (Homo sapiens, UniProt Q9H9B1); assay: EHMT1 enzyme assay on peptide substrate (EHMT1 PEP); assay type: biochemical; conditions: Table III; read-out: EHMT1 PEP (IC50 μM)
T1 sequence (Q9H9B1 1-1298): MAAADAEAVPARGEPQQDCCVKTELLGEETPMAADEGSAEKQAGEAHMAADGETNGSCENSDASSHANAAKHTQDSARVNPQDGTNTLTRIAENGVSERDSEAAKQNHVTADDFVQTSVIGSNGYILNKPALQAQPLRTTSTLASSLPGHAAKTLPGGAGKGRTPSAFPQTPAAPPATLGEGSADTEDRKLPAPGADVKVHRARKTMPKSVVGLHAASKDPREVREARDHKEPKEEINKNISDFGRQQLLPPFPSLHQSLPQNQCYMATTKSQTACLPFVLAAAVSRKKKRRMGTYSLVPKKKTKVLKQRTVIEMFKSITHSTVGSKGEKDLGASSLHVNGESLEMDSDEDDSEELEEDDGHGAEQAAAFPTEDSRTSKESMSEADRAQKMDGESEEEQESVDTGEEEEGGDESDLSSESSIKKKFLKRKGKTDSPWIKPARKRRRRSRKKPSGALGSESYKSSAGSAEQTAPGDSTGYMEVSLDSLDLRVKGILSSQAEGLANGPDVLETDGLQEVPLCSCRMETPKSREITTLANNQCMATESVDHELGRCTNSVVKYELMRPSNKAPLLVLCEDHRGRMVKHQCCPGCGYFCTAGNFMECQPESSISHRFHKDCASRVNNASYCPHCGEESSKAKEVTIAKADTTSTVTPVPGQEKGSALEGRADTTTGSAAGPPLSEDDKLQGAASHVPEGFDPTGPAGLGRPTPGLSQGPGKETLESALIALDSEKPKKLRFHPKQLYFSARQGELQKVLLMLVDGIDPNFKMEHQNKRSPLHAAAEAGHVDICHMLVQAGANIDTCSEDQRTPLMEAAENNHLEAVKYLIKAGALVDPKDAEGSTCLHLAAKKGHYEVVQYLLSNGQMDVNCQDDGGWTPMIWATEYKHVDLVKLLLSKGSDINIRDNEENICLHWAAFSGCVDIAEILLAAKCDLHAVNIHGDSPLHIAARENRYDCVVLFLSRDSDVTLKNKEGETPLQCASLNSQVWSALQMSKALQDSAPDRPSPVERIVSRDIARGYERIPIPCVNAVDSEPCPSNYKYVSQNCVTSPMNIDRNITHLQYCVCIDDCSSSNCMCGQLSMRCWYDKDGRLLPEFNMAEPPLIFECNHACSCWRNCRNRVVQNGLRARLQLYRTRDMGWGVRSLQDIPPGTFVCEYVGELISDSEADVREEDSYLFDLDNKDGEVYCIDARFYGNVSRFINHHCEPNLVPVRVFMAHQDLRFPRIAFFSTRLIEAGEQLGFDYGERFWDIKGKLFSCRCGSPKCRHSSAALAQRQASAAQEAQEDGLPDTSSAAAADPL

human EHMT2 913-1193 = target: T2, human EHMT2 913-1193 (Homo sapiens, UniProt Q96KQ7); assay: EHMT2 enzyme assay on histone peptide substrate (EHMT2 PEP); assay type: biochemical; conditions: Table III; read-out: EHMT2 PEP (IC50 μM)
T2 construct: recombinant purified human EHMT2 913-1193, Viva; purchased Viva
T2 sequence (Q96KQ7 913-1193): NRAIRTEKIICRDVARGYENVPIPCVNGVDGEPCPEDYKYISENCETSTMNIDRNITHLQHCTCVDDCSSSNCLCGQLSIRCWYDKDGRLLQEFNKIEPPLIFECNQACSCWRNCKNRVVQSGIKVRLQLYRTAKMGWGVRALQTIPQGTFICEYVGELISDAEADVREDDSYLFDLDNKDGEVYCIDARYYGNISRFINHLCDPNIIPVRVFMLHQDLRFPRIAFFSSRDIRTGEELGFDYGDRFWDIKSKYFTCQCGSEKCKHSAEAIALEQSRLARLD
Outline: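 Compounds (10-point, 3-fold dilutions, top 50 μM final, 2% DMSO) preincubated 30 min with 0.031 nM EHMT2 in 20 mM Bicine pH 7.5, 0.002% Tween 20, 0.005% gelatin, 1 mM TCEP. Biotinylated histone peptide methylated with ^3H-SAM 60 min at room temperature. Quenched with unlabeled SAM; product captured on streptavidin Flashplate, scintillation counted.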

Row | IC50 (EHMT1) | IC50 (human EHMT2 913-1193) | SMILES
1 | > 10 µM | 1 to 10 µM | CNc1cc(N2CCCC2)nc(Nc2ccc(OC)c(OCCCN3CCCC3)c2)n1 [Compound 450, N^2-(4-methoxy-3-(3-(pyrrolidin-1-yl)propoxy)phenyl)-N^4-methyl-6-(pyrrolidin-1-yl)pyrimidine-2,4-diamine]
2 | < 0.1 µM | 0.1 to 1 µM | COc1ccc(Nc2nc(C)cc(NCC3CCOCC3)n2)cc1OCC1CCN(C)C1 (stereo not drawn) [Compound 451, N^2-(4-methoxy-3-((1-methylpyrrolidin-3-yl)methoxy)phenyl)-6-methyl-N^4-((tetrahydro-2H-pyran-4-yl)methyl)pyrimidine-2,4-diamine]
3 | 1 to 10 µM | > 10 µM | CNc1cc(C)nc(Nc2ccc(OC)c(OCC3CCCO3)c2)n1 (stereo not drawn) [Compound 452, N^2-(4-methoxy-3-((tetrahydrofuran-2-yl)methoxy)phenyl)-N^4,6-dimethylpyrimidine-2,4-diamine]
